From ChEMBL document CHEMBL3217484, “N1-Benzyl substituted cambinol analogues as isozyme selective inhibitors of the sirtuin family of protein deacetylases” (Medchemcomm, 2011)

Tests used:
[1] = molecular target: T1, NAD-dependent protein deacetylase sirtuin-2 (Homo sapiens) (UniProt Q8IXJ6); assay: Inhibition of human recombinant SIRT2 using fluor de Lys as substrate at 60 uM after 1 hr by fluorimeter analysis
T1 sequence (whole entry): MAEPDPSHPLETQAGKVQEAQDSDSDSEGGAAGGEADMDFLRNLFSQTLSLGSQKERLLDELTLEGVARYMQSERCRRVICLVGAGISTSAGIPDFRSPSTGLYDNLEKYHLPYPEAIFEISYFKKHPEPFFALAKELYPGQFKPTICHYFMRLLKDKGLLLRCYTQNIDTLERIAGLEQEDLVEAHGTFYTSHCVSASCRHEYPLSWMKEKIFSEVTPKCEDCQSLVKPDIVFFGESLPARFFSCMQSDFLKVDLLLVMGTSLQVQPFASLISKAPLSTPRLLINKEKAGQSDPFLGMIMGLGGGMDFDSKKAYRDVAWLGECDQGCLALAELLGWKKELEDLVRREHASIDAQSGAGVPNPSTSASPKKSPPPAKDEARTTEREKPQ

[2] = molecular target: T2, NAD-dependent protein deacetylase sirtuin-1 (Homo sapiens) (UniProt Q96EB6); assay: Inhibition of human recombinant SIRT1 using fluor de Lys as substrate at 60 uM after 1 hr by fluorimeter analysis
T2 sequence (whole entry): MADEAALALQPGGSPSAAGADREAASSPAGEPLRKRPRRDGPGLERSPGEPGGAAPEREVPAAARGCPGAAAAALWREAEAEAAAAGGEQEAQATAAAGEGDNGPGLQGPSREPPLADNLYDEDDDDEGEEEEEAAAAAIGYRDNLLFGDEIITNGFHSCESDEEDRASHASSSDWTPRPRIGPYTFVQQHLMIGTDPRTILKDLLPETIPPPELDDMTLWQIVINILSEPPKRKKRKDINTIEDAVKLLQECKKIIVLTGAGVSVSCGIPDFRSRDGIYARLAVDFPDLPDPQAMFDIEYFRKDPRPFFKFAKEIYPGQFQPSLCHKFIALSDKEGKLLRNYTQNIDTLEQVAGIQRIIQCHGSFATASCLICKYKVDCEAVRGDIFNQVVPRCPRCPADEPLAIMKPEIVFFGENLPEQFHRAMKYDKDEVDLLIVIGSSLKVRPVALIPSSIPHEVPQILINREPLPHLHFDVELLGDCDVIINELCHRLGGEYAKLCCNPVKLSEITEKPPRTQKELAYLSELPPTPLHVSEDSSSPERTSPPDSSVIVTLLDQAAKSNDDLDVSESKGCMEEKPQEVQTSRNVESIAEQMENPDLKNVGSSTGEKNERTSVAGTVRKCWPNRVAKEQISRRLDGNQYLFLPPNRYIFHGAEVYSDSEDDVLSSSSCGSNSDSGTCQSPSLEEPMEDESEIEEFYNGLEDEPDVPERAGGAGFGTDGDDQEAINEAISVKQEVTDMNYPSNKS

[3] = molecular target: T3, NAD-dependent protein deacetylase sirtuin-2 (Homo sapiens, UniProt Q8IXJ6); assay: Inhibition of human recombinant SIRT2 using fluor de Lys as substrate after 1 hr by fluorimeter analysis
T3 sequence (Q8IXJ6 whole entry): T1 sequence (whole entry)

H1299 = assay: Inhibition of sirtuin in human H1299 cells assessed increase in alpha-tubulin acetylation at 60 uM after 24 hrs by Western blot analysis in presence of trichostatin-A relative to control; type: cell-based
[4] = molecular target: T4, NAD-dependent protein deacetylase sirtuin-1 (Homo sapiens, UniProt Q96EB6); assay: Inhibition of human recombinant SIRT1 using fluor de Lys as substrate after 1 hr by fluorimeter analysis
T4 sequence (Q96EB6 whole entry): T2 sequence (whole entry)

SMILES	inhibition [1]	inhibition [2]	IC50 [3]	fold change (FC) (H1299)	IC50 [4]
CCCCOc1ccc(Cn2c(-c3ccccc3)c(Cc3c(OC)ccc4ccccc34)c(=O)[nH]c2=S)cc1	66.1%	32.7%			
CCOc1ccc(Cn2c(-c3ccccc3)c(Cc3c(O)ccc4ccccc34)c(=O)[nH]c2=S)cc1	88.9%	13.4%	4 µM	1.7	> 120 µM
COc1ccc2ccccc2c1Cc1c(-c2ccccc2)n(Cc2ccccc2)c(=S)[nH]c1=O	37.7%				
CCCCn1c(-c2ccccc2C)c(Cc2c(OC)ccc3ccccc23)c(=O)[nH]c1=S	37.3%	11.5%			
CCOc1ccc(Cn2c(-c3ccccc3)c(Cc3c(OCc4ccccc4)ccc4ccccc34)c(=O)[nH]c2=S)cc1	67.2%	36.6%			
COc1ccc(Cn2c(-c3ccccc3)c(Cc3c(O)ccc4ccccc34)c(=O)[nH]c2=S)cc1	73.4%		12 µM		58.2 µM
CCCOc1ccc(Cn2c(-c3ccccc3)c(Cc3c(OCc4ccccc4)ccc4ccccc34)c(=O)[nH]c2=S)cc1	65.1%	22.8%			
CCCCn1c(-c2ccc(Cl)cc2)c(Cc2c(OC)ccc3ccccc23)c(=O)[nH]c1=S	49.4%	18.4%			
CCOc1ccc(Cn2c(-c3ccccc3)c(Cc3c(OC)ccc4ccccc34)c(=O)[nH]c2=S)cc1	72.2%	19.3%	16 µM		> 120 µM
COc1ccc(Cn2c(-c3ccccc3)c(Cc3ccccc3)c(=O)[nH]c2=S)cc1	67%	32.2%			
CCCOc1ccc(Cn2c(-c3ccccc3)c(Cc3c(O)ccc4ccccc34)c(=O)[nH]c2=S)cc1	85.4%	15.6%	6 µM		> 120 µM
O=c1cc(-c2ccccc2)n(Cc2ccccc2)c(=S)[nH]1	27%	1.8%			
COc1ccc(Cn2c(-c3ccccc3)c(Cc3c(OCc4ccccc4)ccc4ccccc34)c(=O)[nH]c2=S)cc1	56.9%	29.8%			
COc1ccc(Cn2c(-c3ccccc3)c(Cc3c(OC)ccc4ccccc34)c(=O)[nH]c2=S)cc1	66.1%	8.8%			
O=c1[nH]c(=S)n(Cc2ccccc2)c(-c2ccccc2)c1Cc1c(OCc2ccccc2)ccc2ccccc12	48.4%	25.4%			
O=c1[nH]c(=S)n(Cc2ccccc2)c(-c2ccccc2)c1Cc1ccccc1	45.1%	23%			
O=c1[nH]c(=S)n(Cc2ccccc2)c(-c2ccccc2)c1Cc1c(O)ccc2ccccc12	62%	10.8%			
O=c1[nH]c(=S)[nH]c(-c2ccccc2)c1Cc1c(O)ccc2ccccc12				1.3	
CCCOc1ccc(Cn2c(-c3ccccc3)c(Cc3c(OC)ccc4ccccc34)c(=O)[nH]c2=S)cc1	71.8%	38%	11 µM		61.9 µM
CCCCOc1ccc(Cn2c(-c3ccccc3)c(Cc3ccccc3)c(=O)[nH]c2=S)cc1	63.3%	8.5%			
COc1ccc2ccccc2c1Cc1c(-c2ccccc2)n(C)c(=S)[nH]c1=O	37.7%	36.2%			
CCOc1ccc(Cn2c(-c3ccccc3)c(Cc3ccccc3)c(=O)[nH]c2=S)cc1	73.3%	35%	10 µM		68.1 µM
